The values that follow come from patent US20070054804A1, “Use of fungicides for disinfecting cereal seed” (BAYER CROPSCIENCE AKTIENGESELLSCHAFT, priority 2003, published 2007).

This test concerns Fusarium nivale. The experiment in a line: Fusarium nivale test (wheat)/seed treatment. The class given is in vivo. The following applies: seed dressing of infected wheat seed, evaluated three weeks after sowing, 0% = control, 100% = no infection. The procedure:
Fusarium nivale Test (Wheat)/Seed Treatment The active compounds or the active compound combination are/is applied using commercially available liquid seed dressings of the individual active compounds or the active compound combination. For seed dressing, the infected seed is shaken with the seed dressing in question in a closed plastic container for 3 minutes. For each test, in two seed trays in each case 100 wheat corns are sown at a depth of 3 cm in sand and covered with a layer of fine particulate clay. The seed trays are then placed in a greenhouse at a temperature of about 10° C. and a relative atmospheric humidity of 95% and exposed to light for 15 hours per day. Three weeks after sowing, the plants are evaluated for symptoms. The efficacy is expressed in %. 0% means an efficacy which corresponds to that of the control, whereas an efficacy of 100% means that no infection is observed.

Each structure is given as a SMILES string.

With `CC(C)(C)C(O)(CCc1ccc(Cl)cc1)Cn1cncn1` (centres unmarked) [tebuconazole], the Efficacy in % (3 g active compound per 100 kg of seed) is on record as 11%.

For `OC(Cc1ccccc1Cl)(Cn1nc[nH]c1=S)C1(Cl)CC1` (centres unmarked) [prothioconazole, 2-[2-(1-chlorocyclopropyl)-3-(2-chlorophenyl)-2-hydroxypropyl]-2,4-dihydro[1,2,4]-triazole-3-thione], the Efficacy in % (5 g active compound per 100 kg of seed) came to 57%.
